In ChEMBL document CHEMBL6096730, “Unlocking the Therapeutic Potential of Natural Products for Alzheimer's Disease” (J Med Chem, 2025):

Key:
Acetylcholinesterase = Acetylcholinesterase (Homo sapiens, UniProt P22303); test: Inhibition of human erythrocyte acetylcholinesterase using acetylthiocholine as substrate by Ellman's method
[1] = target: Amyloid-beta precursor protein (Homo sapiens) (UniProt P05067); test: Inhibition of self-mediated Amyloid beta (1 to 42) (unknown origin) aggregation at 20 uM measured every 5 mins by ThT fluorescence based assay relative to control
Amyloid-beta precursor protein (Homo sapiens), sequence (P05067 whole entry): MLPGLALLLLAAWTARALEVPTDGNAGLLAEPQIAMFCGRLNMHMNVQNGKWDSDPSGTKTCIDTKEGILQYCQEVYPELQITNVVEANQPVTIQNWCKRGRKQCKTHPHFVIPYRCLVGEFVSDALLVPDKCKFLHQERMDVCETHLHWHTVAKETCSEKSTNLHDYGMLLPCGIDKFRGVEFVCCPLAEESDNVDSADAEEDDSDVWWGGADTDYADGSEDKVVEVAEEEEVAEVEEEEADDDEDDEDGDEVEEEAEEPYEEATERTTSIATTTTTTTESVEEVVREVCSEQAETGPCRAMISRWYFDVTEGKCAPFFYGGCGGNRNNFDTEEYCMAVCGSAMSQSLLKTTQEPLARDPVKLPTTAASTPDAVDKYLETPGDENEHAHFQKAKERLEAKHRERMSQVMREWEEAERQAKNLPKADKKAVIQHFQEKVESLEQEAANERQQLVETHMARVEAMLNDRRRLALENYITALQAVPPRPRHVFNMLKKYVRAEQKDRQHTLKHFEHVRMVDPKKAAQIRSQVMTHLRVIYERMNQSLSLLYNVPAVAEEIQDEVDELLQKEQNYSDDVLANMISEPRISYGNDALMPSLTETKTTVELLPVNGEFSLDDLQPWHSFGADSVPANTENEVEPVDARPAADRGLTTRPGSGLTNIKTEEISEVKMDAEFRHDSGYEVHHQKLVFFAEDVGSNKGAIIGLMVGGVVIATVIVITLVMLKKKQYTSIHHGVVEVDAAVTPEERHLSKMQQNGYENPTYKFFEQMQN

Acetylcholinesterase, sequence (P22303 whole entry): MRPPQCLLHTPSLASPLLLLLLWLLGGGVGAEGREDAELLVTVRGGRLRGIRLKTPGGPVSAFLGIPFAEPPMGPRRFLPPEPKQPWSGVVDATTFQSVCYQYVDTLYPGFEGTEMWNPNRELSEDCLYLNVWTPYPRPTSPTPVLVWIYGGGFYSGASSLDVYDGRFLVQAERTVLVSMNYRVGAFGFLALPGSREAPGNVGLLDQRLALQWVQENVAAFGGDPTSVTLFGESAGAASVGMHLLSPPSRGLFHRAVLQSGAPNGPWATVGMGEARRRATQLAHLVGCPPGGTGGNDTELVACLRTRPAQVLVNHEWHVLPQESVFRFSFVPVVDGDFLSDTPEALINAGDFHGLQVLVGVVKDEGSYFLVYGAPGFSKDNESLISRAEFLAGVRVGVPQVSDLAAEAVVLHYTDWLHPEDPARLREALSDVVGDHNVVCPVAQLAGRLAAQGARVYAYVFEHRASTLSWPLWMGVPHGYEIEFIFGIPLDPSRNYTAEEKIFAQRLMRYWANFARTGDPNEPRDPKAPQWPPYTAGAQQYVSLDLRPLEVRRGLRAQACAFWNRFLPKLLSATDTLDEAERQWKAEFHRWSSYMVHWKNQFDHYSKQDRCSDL

Structure (SMILES) | IC50 (Acetylcholinesterase) [nM] | inhibition [1] [%]
COc1ccc([C@H]2O[C@@H](O)[C@H]3[C@@H]2C(=O)O[C@@H]3c2cc(OC)c3c(c2)OCO3)cc1OC | 300 | –
COc1cc([C@H](O)[C@H](C)Oc2ccc(CCCO)cc2O)ccc1O | – | 81
